# Measured values: article PMC11963559, “Identification of novel thiazole derivatives as flaviviral protease inhibitors effective against Dengue (DENV2) and Japanese encephalitis viruses” (Antimicrobial Agents and Chemotherapy, 2025)
# Experiments:
# [1] = MTT cytotoxicity assay in BHK-21 cells; assay type: cell-based, hamster; conditions: hamster
# Experimental: (§1) First, cytotoxic impact of these compounds was evaluated using MTT assay. […] Subsequently, we evaluated the effectiveness of these compounds in inhibiting DENV2 replication. BHK-21 cells were infected with the virus in presence of increasing concentration of these compounds, and harvested at 24 hpi. The virus replication rate was assessed by quantifying the copy number of viral genomic RNA using quantitative real-time PCR (qRT-PCR).
# (§2) The MTT assay was performed to determine cellular metabolic activity as an indicator of cell viability, proliferation, and cytotoxicity. Thus, to determine whether these compounds had any toxic effects on cellular viability, an MTT assay was performed following the protocol described previously by Mosmann (1983) ([55], [56]). Briefly, BHK-21 and SH-SHY5Y cells were seeded into 96-well plates at a density of 20,000 cells/well. Almost 16–18 h later, the cells were treated with different concentrations of the compounds (3au and 3aq) for 24 h at 37 °C in 5% CO2. Thereafter, the medium was aspirated, and 100 µL of MTT reagent (5 mg/mL, SRL) in PBS was added to the cells and incubated for 3 h at 37 °C. Formazan crystals were formed in each well and resuspended in 100 µL of dimethyl sulfoxide (DMSO) (Sigma, USA) at room temperature for 20 min to completely dissolve the crystals. The absorbance of the solution in a 96-well plate was measured at 595 nm using a microplate reader (Epoch 2; BioTek Instruments). Each experiment was performed in triplicate, and the percentage of cell viability was determined as the ratio of the absorbance values of the experimental samples to the control solvent (DMSO) on the same plate.
# BHK-21 cells = test: MTT cytotoxicity assay in BHK-21 cells; assay type: cell-based, hamster; conditions: 24 h
# Experimental: as §1, §2
# DENV2 = DENV2 replication in BHK-21 cells, viral RNA by qRT-PCR; assay type: cell-based; conditions: for SI, selectivity index (CC50/IC50): DENV2, BHK-21 cells, qRT-PCR IC50; for IC50: Dengue virus, DENV2, BHK-21, read-out: IC50, reduction of DENV2 viral RNA
# Experimental: as §1
# BHK-21 cells were seeded in a 24-well cell culture plate at a density of (0.25 × 10^6 cells/well) with regular growth medium containing DMEM + 10% FBS 1 day prior to infection in triplicate. Once the cells reached 85%–90% confluence, they were infected with DENV2 and JEV virus inoculum comprising DMEM + 2% FBS and 10 µM of the compound at an MOI of 0.1. Cells were incubated for 1.5 h at 37 °C with the virus-compound inoculum, with gentle rocking every 10 min to ensure even coverage and prevent the cellular monolayer from drying. Finally, the inoculum was replenished with fresh culture media comprising DMEM + 2% FBS and the compound, and then kept in an incubator in a humidified chamber at 37 °C until harvest (18 h). The cell culture supernatant was aspirated and washed with PBS, and the cellular monolayer was used for viral RNA isolation.
# Total cellular RNA was extracted from BHK-21 cells using TRIzol reagent, according to the manufacturer’s instructions (Ambion Life Technologies, USA). RNA quantity and integrity were determined prior to use on a NanoDrop spectrophotometer (Thermo Fisher Scientific). Then, 1 µg of total RNA from each experimental sample was used to synthesize cDNA by reverse transcriptase (RT) by incubating the RNAs with Moloney murine leukemia virus (M-MuLV) RT, with specific RT primer, 5′-[…]-3′ (Tm = 63 °C), and deoxynucleoside triphosphates (dNTPs) (New England Biolabs) at 42 °C for 50 min, followed by inactivation at 70 °C for 15 min.
# To quantify the viral RNA copy number, quantitative RT-PCR (qRT-PCR) was performed in duplicate using iTaq Universal SYBR Green Supermix (Bio-Rad). The cDNAs used for qPCR analysis were prepared using Power SYBR Green PCR Master Mix (Bio-Rad, #172–5125) in a QuantStudio5 Applied Biosystems real-time PCR system. For qPCR amplification of the JEV amplicon size of 202 bp, the sequences of the forward and reverse primer pairs used were 5′-[…]-3′ (Tm = 65 °C) and 5′-[…]-3′ (Tm = 63 °C) and for DENV amplicon of 163 bp, the sequences of the forward and reverse primer pair used were 5′-[…]-3′ (Tm = 61 °C) and 5′-[…]-3′ (Tm = 59 °C). […] Delta Ct for both control and compound-treated samples was determined and subsequently analyzed by determining the delta Ct to determine the mRNA expression of target genes in control vs treated samples.
# JEV = test: Time of drug addition assay, JEV in BHK-21 cells; assay type: cell-based; conditions: JEV MOI 0.1, BHK-21, 10 µM, viral RNA at 24 hpi
# Experimental: Considering the mode of action of the compounds 3au and 3aq, they should satisfy this criteria. To evaluate this potential, time of addition experiment was conducted for both compounds to inhibit JEV infection. BHK-21 cells and the virus were pre-treated for 3 h with 10 µM of compounds followed by infection and subsequent incubation in presence of the same (pre + during + post). Alternatively, the compounds (10 µM) were added either during the infection (during + post) or at different times post-infection as indicated (Fig. 9C and D). Virus amplification was measured at 24 hpi by measuring viral RNA accumulation as described above. […] This sustained inhibition indicates a potential therapeutic window for intervention, highlighting the compounds' ability to impede viral replication after initial infection. […] Together, our data not only established the antiviral activity of the compounds against DENV2 and JEV but also pointed out the mechanism of action of these compounds during the specific steps of the virus life cycle.
# BHK-21 cells were seeded in a 12-well cell culture plate at a density of (0.5 × 10^6 cells/well). Upon 85%–90% confluency, cells were infected with JEV virus at an MOI of 0.1. Cells were incubated for 1.5 h at 37 °C. […] Cells were harvested at 24 hpi, and the viral genomic RNA levels were quantified using qRT-PCR.
smiles,measurement,setting,value
COc1ccc(-c2csc(N/N=C(\C)c3ccc(O)cc3)n2)cc1 [3aq],CC50 at 24 h,[1],82 ± 2.38 µM
same,non-toxic concentration,BHK-21 cells,up to 25 µM
same,"SI, selectivity index (CC50/IC50)",DENV2,18.35
same,IC50,DENV2,4.47 ± 0.41 µM
same,inhibition of viral replication by time of addition,JEV,significantly inhibited viral replication even when added at 9 hpi
COc1ccc(-c2csc(N/N=C(\C)c3cc(O)cc(O)c3)n2)cc1 [3au],CC50 at 24 h,[1],76.6 ± 2.74 µM
same,non-toxic concentration,BHK-21 cells,up to 25 µM
same,"SI, selectivity index (CC50/IC50)",DENV2,10.38
same,IC50,DENV2,7.38 ± 0.6 µM
same,inhibition of viral replication by time of addition,JEV,significantly inhibited viral replication even when added at 9 hpi
